Measurements taken from patent US20240158447A1, “PEPTIDES FOR USE IN THE TREATMENT OR PREVENTION OF MYOCARDIAL DAMAGE” (THE UNIVERSITY OF WESTERN AUSTRALIA, priority 2020, published 2024).

Key:
Cavβ2 subunit = target: T1, Cavβ2 subunit (Homo sapiens, UniProt Q08289); assay: Competitive binding affinity assay, biotinylated AID affinity beads vs Cavβ2 subunit (Example 9); settings: dose-response 0, 10 nM to 100 μM peptide; FIG. 9
T1 construct: incubated with 100 μg of Cavβ2 subunit from cardiac homogenate and cytoplasmic protein preparation; from tissue; host or cells: cardiac homogenate and cytoplasmic protein preparation
T1 sequence (Q08289 whole entry): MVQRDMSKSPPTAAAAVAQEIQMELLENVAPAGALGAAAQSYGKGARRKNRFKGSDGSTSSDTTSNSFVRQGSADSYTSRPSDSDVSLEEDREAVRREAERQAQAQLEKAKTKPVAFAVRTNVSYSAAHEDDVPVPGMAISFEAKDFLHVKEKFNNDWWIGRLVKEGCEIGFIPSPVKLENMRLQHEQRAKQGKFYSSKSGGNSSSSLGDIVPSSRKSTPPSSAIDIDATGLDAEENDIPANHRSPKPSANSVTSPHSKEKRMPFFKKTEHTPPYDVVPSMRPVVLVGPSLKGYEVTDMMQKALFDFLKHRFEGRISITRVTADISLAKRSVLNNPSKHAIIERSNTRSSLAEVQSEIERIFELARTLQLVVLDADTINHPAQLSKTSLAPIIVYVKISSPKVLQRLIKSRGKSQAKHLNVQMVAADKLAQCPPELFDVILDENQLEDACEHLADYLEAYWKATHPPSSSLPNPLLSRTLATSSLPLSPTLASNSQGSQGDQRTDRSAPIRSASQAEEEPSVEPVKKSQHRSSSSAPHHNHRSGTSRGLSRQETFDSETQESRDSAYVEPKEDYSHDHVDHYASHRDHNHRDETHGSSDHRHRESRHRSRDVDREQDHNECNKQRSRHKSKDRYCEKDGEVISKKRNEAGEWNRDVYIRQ
Description: In this experiment, a binding affinity assay was utilized to examine the binding efficacy of AID peptide variants presented in Table 8, compared to the original AID peptide.
Biotinylation of original AID (no TAT): For each reaction (a dose-response curve consisted of 6 reactions), 0.02 nM […] was incubated in biotinylation solution (0.1M MES buffer containing 1 nM amine-PEG11-biotin and 0.2 nM EDC) for 2 hrs at room temperature with agitation (400 rpm). Affinity beads (Dynabeads M-280 Streptavidin, ThermoFisher Scientific) were then incubated with biotinylated AID peptide for 30 min at room temperature with agitation (400 rpm). Afterwards, biotinylated AID-coated affinity beads were washed, initially in 0.1% BSA in PBS and then three times in PBS for 3 min.
Biochem J. 2000; 348 Pt 3:657-65; Haase H, Striessnig J, Holtzhauer M, Vetter R, Glossmann H. A rapid procedure for the purification of cardiac 1,4-dihydropyridine receptors from porcine heart. Eur J Pharmacol. 1991; 207(1):51-9).
Competitive binding of AID-affinity beads and Cavβ2 subunit: Cavβ2-AID mutant peptide dilutions were then incubated with biotinylated AID-coated affinity beads for 2 hrs at room temperature with gentle agitation (400 rpm). Samples were placed on a magnetic stand to allow affinity beads to migrate to the magnet. Supernatant was removed and treated with 1× sample buffer (62.5 mM Tris-HCl, pH 6.8, 2% SDS, 10% glycerol, 100 mM DTT, 0.002% Bromophenol Blue) for 5 min at 95° C. Resulting protein was analysed by immunoblot.

[1] = tested on: wild type cardiac myocytes; assay: Intracellular superoxide (DHE) after H2O2 in cardiac myocytes; type: cell-based, mouse; settings: 20 min incubation with 0.5-1 μM peptide; 30 μM H2O2 5 min; FIG. 3(b)
Description: Adult male C57BL/6J mice were anesthetized with pentobarbitone sodium (240 mg/kg) via intraperitoneal injection prior to excision of the heart. Ventricular myocytes were isolated. Mouse hearts were cannulated onto a Langendorff apparatus via the aorta and perfused retrogradely with Krebs-Henseleit Buffer (KHB) containing (in mM): 120 NaCl, 25 NaHCO3, 4.8 KCl, 2.2 MgSO4, 1.2 NaH2PO4 and 11 glucose (pH=7.35 with O2/CO2 at 37° C.) for 4 min at 37° C. Hearts were then perfused with KHB supplemented with 2.4 mg/ml collagenase B for 3 min, then 8 min perfusion in the presence of 40 μM calcium. Following perfusion, aorta and atria were removed, and ventricles gently teased apart and triturated to dissociate myocytes into suspension. […]
All in vitro studies were performed in freshly isolated myocytes at 37° C. […] Following a 20 min incubation with 0.5-1 μM AID(S)-TAT, AID-TAT, peptide 6 or peptide 7, fluorescent signal of individual myocytes was quantified using Metamorph 6.3 to measure signal intensity of manually traced cell regions. […]
Superoxide generation was assessed in cardiac myocytes using the fluorescent indicator dihydroethidium (DHE, 5 μM, 515-560 nm ex filter, 590 long pass em, Merck). […] Fluorescence was reported as percentage change in the slope of the signal measured at 20-40 min (treatment) over 1-10 min (pre-treatment).

cTnI.2 wt myocytes = assay: Mitochondrial membrane potential (JC-1) response to BayK(−), wt myocytes (Example 10); type: cell-based, mouse; settings: 0.5 μM peptide, calcium-free, FIG. 11A
Description: In this experiment wt myocytes were pre-exposed to 0.1, 0.5 or 1 μM for 20 min and assessed changes in flavoprotein oxidation and ψm.
Measurement of mitochondrial membrane potential: The fluorescent indicator 5,5′,6,6′-tetrachloro1,1′,3,3′-tetraethylbenzimidazolylcarbocyanine iodide (JC-1) was used to measure mitochondrial membrane potential (ψm) as previously described (Viola H M, Arthur P G, Hool L C. Transient exposure to hydrogen peroxide causes an increase in mitochondria-derived superoxide as a result of sustained alteration in L-type Ca2+ channel function in the absence of apoptosis in ventricular myocytes. Circ Res. 2007; 100(7):1036-44). […] Images were acquired at 2 min intervals with 50 ms exposure. Metamorph 6.3 (Version 7.10.3) was used to quantify the signal by manually tracing myocytes. An equivalent region not containing cells was used as background and was subtracted. The 580 nm/535 nm ratiometric fluorescence values recorded over 6 min before and 4 min after addition of drugs were averaged and alterations in fluorescent ratios reported as the percentage increase from the basal average. […] In addition, individual 580 and 535 signals were assessed in each experiment to determine whether the fluorescent indicator was accurately measuring ψm. […]
Based on results obtained from in vitro assessment of flavoprotein oxidation, the effect of 0.5 μM AID-TAT variants on changes in mitochondrial membrane potential (ψm) was further explored. Experiments were performed using JC-1 fluorescence under calcium-free conditions as previously described (Viola H, Johnstone V, Cserne Szappanos H, Richman T, Tsoutsman T, Filipovska A, et al. The L-type Ca(2+) channel facilitates abnormal metabolic activity in the cTnI-G2035 mouse model of hypertrophic cardiomyopathy. J Physiol. 2016; 594(14):4051-70; Viola H M, Shah A A, Johnstone V P A, Cserne Szappanos H, Hodson M P, Hool L C. Characterization and validation of a preventative therapy for hypertrophic cardiomyopathy in a murine model of the disease. Proc Natl Acad Sci U S A. 2020; 117(37):23113-24). […]

Substance: AIDP7-TAT: QQQEEDLKGYLDWITQAE with TAT sequence
- K0.5 values compared to AID peptide (Cavβ2 subunit): decreased K0.5 values
- H2O2 induced superoxide production (DHE) [1]: reduced the generation of superoxide in a statistically significant manner
- BayK(−) induced increase in ψm (JC-1 fluorescence) (cTnI.2 wt myocytes): significantly attenuated the response
